Laboratory results: US11020394B2, “Compositions and methods for treating inflammatory bowel disease using a combination therapy of small molecule inhibitors of C—C chemokine receptor type 9 (CCR9) and anti-α4β7 integrin blocking antibodies” (ChemoCentryx, Inc., priority 2014, dated 2021)

System: in vitro differentiated human CCR9+α4β7+ T cells
Assay: Static binding (adhesion) assay of in vitro differentiated T cells on MAdCAM-1-Fc coated plates
Format: cell-based
Details: 1 μM CCX507, with hCCL25, MAdCAM-1-Fc coated plates, FIG. 1B
Description: Adhesion assays were performed as follows. Human lymphocytes were isolated from total PBMCs and activated with α-CD3ε/α-CD28 (1 μg/mL; R&D Systems) in the presence of 1 μM retinoic acid (Sigma) and 1 ng/mL human IL12 (R&D Systems). In vitro activated T cells were further expanded for 5 days in the presence of 1 μM retinoic acid (RA) and 1 ng/mL human IL12. The expanded cells were stained with an anti CCR9 APC conjugated antibody (Cat. No. 248621; R&D Systems) and a conjugated anti-α4β7 integrin antibody (Act-1). The stained cells were analyzed by flow cytometry. Expression of CCR9 and α4β7 integrin in the expanded T cells was depicted as a 2-parameter scatterplot in FIG. 1A.
In vitro activated T cells were added to 96-well plate coated overnight with 0.3 μg/mL MAdCAM-1-Fc fusion protein (R&D Systems) in the presence of the following conditions: DMSO only, 500 ng human CCL25 (hCCL25; a CCR9 ligand) only, 1 μM CCX507 (a CCR9 small molecule inhibitor) only, or 500 ng hCCL25 and 1 μM CCX507. Adherent cells were quantified using CyQUANT® Cell Proliferation Assays (Thermo Fisher).

Q: How did the “binding of RA-differentiated human T cells to MAdCAM-1 (adherent cells quantified using CyQUANT, RFU)” value turn out when `Cc1cc(NS(=O)(=O)c2ccc(C(C)(C)C)c(F)c2)n(-c2ccc(N)c3ncccc23)n1` [CCX507] was run?
A: Its value is “limits the binding of RA-differentiated human T cells to MAdCAM-1”.
